Data taken from ChEMBL document CHEMBL1147468, “Synthesis and anti-inflammatory effects of novel pimarane diterpenoid analogs” (Bioorg Med Chem Lett, 2004).
Active and inactive are the calls of the source. The rule behind the calls is not given here.

Key:
[1] = tested on: RAW264.7; test: In vitro inhibition of NO production at 40 uM concentration in RAW 264.7 cells; type: functional; conditions: Mus musculus
[2] = molecular target: T1, Prostaglandin G/H synthase 2 (Ovis aries, UniProt P79208); test: In vitro inhibition of Prostaglandin G/H synthase 2 from sheep placental cotyledons
T1 sequence (P79208 whole entry): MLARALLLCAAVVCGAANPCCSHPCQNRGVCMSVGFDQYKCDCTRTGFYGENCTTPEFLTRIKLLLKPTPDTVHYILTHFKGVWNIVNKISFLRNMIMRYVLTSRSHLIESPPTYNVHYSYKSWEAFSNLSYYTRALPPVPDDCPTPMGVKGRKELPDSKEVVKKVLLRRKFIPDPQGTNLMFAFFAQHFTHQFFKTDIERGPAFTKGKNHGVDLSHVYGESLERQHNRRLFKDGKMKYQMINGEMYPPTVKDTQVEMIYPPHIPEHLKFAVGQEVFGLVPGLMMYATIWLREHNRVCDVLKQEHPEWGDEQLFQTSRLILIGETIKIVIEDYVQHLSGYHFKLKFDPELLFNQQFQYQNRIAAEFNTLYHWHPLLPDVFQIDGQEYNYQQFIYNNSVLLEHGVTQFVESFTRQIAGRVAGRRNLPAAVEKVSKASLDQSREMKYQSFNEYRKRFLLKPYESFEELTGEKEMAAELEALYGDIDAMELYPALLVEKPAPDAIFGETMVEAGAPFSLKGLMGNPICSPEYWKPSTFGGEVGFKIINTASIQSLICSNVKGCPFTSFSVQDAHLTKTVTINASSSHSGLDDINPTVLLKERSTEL

[3] = molecular target: T1, Prostaglandin G/H synthase 2; test: In vitro inhibition of Prostaglandin G/H synthase 2 from sheep placental cotyledons; No activity
[4] = tested on: RAW264.7; test: In vitro inhibition of NO production at 40 uM concentration in RAW 264.7 cells; No activity; type: functional, cell-based; conditions: Mus musculus

For C=C[C@@]1(C)CC=C2C(CCC3[C@@]2(C)CCC[C@@]3(C)/C=C/C=C/C(=O)O)C1 (stereo not given in full), the inhibition at 40 µM [1] was 96.5%.

With C=C[C@@]1(C)CC=C2C(CCC3[C@](C)(CCC(=O)NS(=O)(=O)c4ccc(I)cc4)CCC[C@@]23C)C1 (stereo not given in full) the inhibition at 40 µM [1] was 99.5% and the IC50 [2] was 60.7 µM.

C=C[C@@]1(C)CC=C2C(CCC3[C@](C)(CCC/C=C/C(=O)O)CCC[C@@]23C)C1 (stereo not given in full) showed an inhibition at 40 µM [1] of 98.2% and an IC50 [2] of 37.8 µM.

In the case of C=C[C@@]1(C)CC=C2C(CCC3[C@](C)(CCC(=O)O)CCC[C@@]23C)C1 (stereo not given in full), the inhibition at 40 µM [1] is reported as 23%.

C=C[C@@]1(C)CC=C2C(CCC3[C@](C)(CCCC(=O)O)CCC[C@@]23C)C1 (stereo not given in full) showed an inhibition at 40 µM [1] of 65.2%.

C=C[C@@]1(C)CC=C2C(CCC3[C@](C)(CCCCC(=O)O)CCC[C@@]23C)C1 (stereo not given in full) showed an inhibition at 40 µM [1] of 99%.

C=C[C@@]1(C)CC=C2C(CCC3[C@](C)(C(=O)n4ccnc4)CCC[C@@]23C)C1 (stereo not given in full) was tested, and the inhibition at 40 µM [1] was 99% and the IC50 [3] was “Not Active”.

With C=C[C@@]1(C)CC=C2C(CCC3[C@](C)(C(=O)NN)CCC[C@@]23C)C1 (stereo not given in full) the inhibition at 40 µM [1] was 3.4%.

For C=C[C@@]1(C)CC=C2C(CCC3[C@](C)(C/C=C\C(=O)O)CCC[C@@]23C)C1 (stereo not given in full), the inhibition at 40 µM [1] was 77.9%.

In the case of C=C[C@@]1(C)CC=C2C(CCC3[C@@]2(C)CCC[C@@]3(C)/C=C/C(=O)O)C1 (stereo not given in full), the inhibition at 40 µM [1] is reported as 45.1%.

C=C[C@@]1(C)CC=C2C(CCC3[C@](C)(CC(=O)NS(=O)(=O)c4ccc(I)cc4)CCC[C@@]23C)C1 (stereo not given in full) showed an inhibition at 40 µM [1] of 94.6% and an IC50 [2] of 72.2 µM.

With C=C[C@@]1(C)CC=C2C(CCC3[C@](C)(CO)CCC[C@@]23C)C1 (stereo not given in full) [ACANTHOL] the inhibition at 40 µM [1] was 84.8% and the IC50 [3] was “Not Active”.

For C=C[C@@]1(C)CC=C2C(CCC3[C@](C)(CC(=O)O)CCC[C@@]23C)C1 (stereo not given in full), the inhibition [4] was “inactive”.

In the case of C=C[C@@]1(C)CC=C2C(CCC3[C@](C)(C(=O)NC)CCC[C@@]23C)C1 (stereo not given in full), the inhibition at 40 µM [1] is reported as 85.3% and the IC50 [3] is reported as “Not Active”.
